Holding throughout (assay type): in vivo
Assay [1] deals with strawberry (breed; Eminent garden series, Yokubari-ichigo kurenai (SUMIKA)). As to the kind of experiment: Effect of oxidized glutathione on growth of strawberry (number of runners). To be noted: GSH-treated zone.
For a further assay, the system named is eustoma. Put plainly: Effect on promoting growth of roots of eustoma. To be noted: MS culture medium containing 1 mM-GSSG or GSH, grown 1 month, transferred to planter.
Another assay concerns Arabidopsis. Put plainly: Influence of oxidized glutathione on growth of Arabidopsis. To be noted: 5 mM H2O2 solution; 8 weeks after the sowing. The procedure: Specifically, the plants were cultivated with two or three plants in one pod of approximately 65 in width, 65 in depth, and 50 in height, and an appropriate amount of a treatment solution was supplied. The effect of the treatment was evaluated with respect to the number of rosette leaves, the speed of a growing flower stalk, the number of flowers, and the number of seeds.

Excerpt for eustoma: In the planter, 2 parts of vermiculite, 1 part of The Kureha Ikubyou Baido soil, and 1 part of vermiculite were layered as a lower layer, a middle layer, and an upper layer, respectively, and the above plants were transferred thereto.

As to `N[C@@H](CCC(=O)N[C@@H](CS)C(=O)NCC(=O)O)C(=O)O` [GSH, reduced glutathione], in assay [1], the “increase in the number of runners relative to the increase of the GSSG-treated zone” value is given as “approximately one third” and the “number of runners per one stock vs Cont zone” value was “more number of runners per one stock than a Cont zone”. For the same compound, the “growth of roots vs plants not treated with GSSG” value with eustoma was “subdued growth of roots”.
On to `OO` [H2O2, reference compound], for which the “state of plant (life of plant)” value with Arabidopsis is reported as “withering”.

Values taken from patent US9532519B2, “Plant growth regulator and use thereof” (Japan Science and Technology Agency, priority 2006, dated 2017).
